Data reported in US20210161188A1, “POLYMETHOXYFLAVONES AS SWEETNESS ENHANCERS” (Firmenich SA, priority 2018, published 2021).

Experiments:
Type in all cases: in vivo, human
[1] = tested on: sweetness of a reference water solution containing 4% sucrose (sucrose base); test: Sensory panel of 25 trained panelists, sweet taste modifying effect in 4% sucrose, with nose-clip; details: for enhancement of the sweetness of the sucrose base (in words): 5 ppm; for Significant level Student test (NC) / sweetness, With nose-clip (NC): 5 ppm in 4% sucrose; for Significant level Student test (NC): sweetness, with nose-clip; for sweetness, With nose-clip (NC): scale of −5 (strong masking) to 5 (strong enhancing), 0 = sucrose base
Excerpt: (§1) The taste of a sample of a composition according to several aspects presented herein, with regard to sweetness and/or sweetness enhancing properties, may be assessed in vivo by using a panel of trained sensory evaluators experienced in the sweet taste estimation procedure, e.g. in the sensory assay described e.g. in Examples 1 and 2, using a test base comprising a 4% sucrose solution, or similar composition.
(§2) In sensory studies, panelists are asked to take a sample of the liquid to be assessed (test substance, e.g. the test base comprising a composition according to several aspects presented herein) into the mouth and after some time allowed for taste perception, to spit the sample out completely. Subsequently, the panelists are asked to rinse their mouth well with water or black tea to reduce any potential carry over effects. The tasting of a sample can be repeated if required.
Sensory Evaluations: A sensory panel consisted of 25 trained panelists. The panelists were asked to evaluate the sweet taste modifying effect of the isolated individual polymethoxyflavones in a reference water solution containing 4% sucrose. The panelists evaluated samples containing TMS, HMQ, NOB, HMF, TAN and SIN (all at 5 ppm), and a mixture comprising a mixture of polymethoxyflavones (PMF mixture at 10 ppm), for taste properties (sweet) on a scale of −5 to 5 (−5 denoted strong masking effect and 5 denoted strong enhancing effect, 0 being the intensity of a reference water solution containing 4% sucrose—referred to herein as the sucrose base).

[2] = tested on: sweetness of a reference water solution containing 4% sucrose (sucrose base); test: Additional sensory evaluation, 8 trained panelists, dose series in 4% sucrose
Excerpt: as §1, §2
Additional Sensory Evaluations: A sensory panel consisted of 8 trained panelists. The panelists were asked to evaluate the sweet taste modifying effect of 0.001, 0.1, 1, 2, and 20 ppm of either TMS, HMQ, or NOB in a reference water solution containing 4% sucrose, on a scale of −5 to 5 (−5 denoted strong masking effect and 5 denoted strong enhancing effect, 0 being the intensity of a reference water solution containing 4% sucrose—referred to herein as the sucrose base).

[3] = tested on: sweetness of a reference water solution containing 4% sucrose; test: Additional sensory evaluation, 8 trained panelists, TMS, HMQ and TMS:HMQ mixtures in different ratio; details: for significance of sweetness enhancement: Low sugar beverage (4% sucrose)
Excerpt: as §1, §2
A sensory panel consisted of 8 trained panelists. The panelists were asked to evaluate the sweet taste modifying effect of 0.5, 1, 2 ppm of either TMS or HMQ as well as 1, 1.5, 2 ppm of TMS and HMQ mixture in different ratio in a reference water solution containing 4% sucrose.

[4] = tested on: sweetness of reduce sugar fruit tea beverage; test: Additional sensory evaluation, 8 trained panelists, fruit tea beverage; design: significance of sweetness enhancement: key to the marks not given beside the values
Excerpt: as §1, §2
Additional Sensory Evaluations: A sensory panel consisted of 8 trained panelists. The panelists were asked to evaluate the sweet taste modifying effect of 0.001, 2 and 20 ppm of PMF mixture and 0.2 ppm of TMS, 0.1 ppm of HMQ, and 0.3 ppm of the mixture of TMS and HMQ at ratio of 2 to 1 in a reference low sugar fruit tea beverage solution as well as standard sugar fruit tea beverage solution.

[5] = at 0.1 and 0.001 ppm in 4% sucrose
[6] = at doses less than or equal to 2 ppm in 4% sucrose

SMILES	enhancement of the sweetness of the sucrose base (in words) [1]	Significant level Student test (NC) [1]	sweetness, With nose-clip (NC) [1]	significance of sweetness enhancement ([2]; 0.001 ppm in 4% sucrose)	sweetness enhancing properties (in words) ([2]; 0.001 to 20 ppm in 4% sucrose, in contrast to TMS and HMQ)	significance of sweetness enhancement ([2]; 1 ppm in 4% sucrose)	significance of sweetness enhancement ([2]; 20 ppm in 4% sucrose)	significance of sweetness enhancement ([2]; 0.1 ppm in 4% sucrose)	significance of sweetness enhancement ([2]; 2 ppm in 4% sucrose)	sweetness enhancement effect (in words) [2, 5]	sweetness enhancement effect (in words) [2, 6]	significance of sweetness enhancement ([3]; 0.5 ppm)	sweetness enhancement effect (in words) ([3]; 1 ppm)	significance of sweetness enhancement ([3]; 2 ppm)	sweetness enhancement effect (in words) ([4]; 0.1 ppm in reduce sugar fruit tea beverage)	significance of sweetness enhancement ([3]; 1 ppm)	significance of sweetness enhancement ([4]; +0.2 ppm in reduce sugar fruit tea beverage)
COc1ccc(-c2cc(=O)c3c(OC)c(OC)c(OC)c(OC)c3o2)cc1OC [NOB, 5,6,7,8,3′,4′-hexamethoxyflavone, reference compound]	significantly enhance the sweetness of the sucrose base	++	0.37	++	less significant	++	++										
COc1ccc(-c2oc3cc(OC)c(OC)c(OC)c3c(=O)c2OC)cc1OC [HMQ, 3,5,6,7,3′,4′-hexamethoxyflavone]	significantly enhance the sweetness of the sucrose base	++	0.57	+++				++	++	significant sweetness enhancement effect	better sweetness enhancement effect	++	did not show any observable sweetness enhancement effect	++	did not show the sweetness enhancement effect		
COc1ccc(-c2cc(=O)c3c(OC)c(OC)c(OC)c(OC)c3o2)cc1 [TAN, 5,6,7,8,4′-pentamethoxyflavone]	negative effect of sweetness	−	−0.30														
COc1ccc(-c2cc(=O)c3c(OC)c(OC)c(OC)cc3o2)cc1 [TMS, 5,6,7,4′-tetramethoxyflavone]	significantly enhance the sweetness of the sucrose base	++	0.55	++		++		++	+	significant sweetness enhancement effect	better sweetness enhancement effect			+		++	++
COc1ccc(-c2oc3c(OC)c(OC)c(OC)c(OC)c3c(=O)c2OC)cc1OC [HMF, 3,5,6,7,8,3′,4′-heptamethoxyflavone]	Neither HMF, nor SIN had any observable enhancement of sweetness		0.21														
COc1ccc(-c2cc(=O)c3c(OC)c(OC)c(OC)cc3o2)cc1OC [SIN, 5,6,7,3′,4′-pentamethoxyflavone]	Neither HMF, nor SIN had any observable enhancement of sweetness		0.17														
